The target of the assay is GHS-R (Homo sapiens, UniProt Q92847). Briefly: GHS-R antagonist activity (Ki) in a cell based assay. In short, it runs like this: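 Transfected COS-7 cells were labelled 24 h with [^3H]-myo-inositol and preincubated 30 min at 37 °C in HEPES buffer pH 7.4 with 10 mM LiCl, optionally with 1 U/ml adenosine deaminase. Compound was applied for 45 min at 37 °C. [^3H]-inositol phosphates were extracted with perchloric acid and isolated by anion-exchange resin.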
GHS-R, sequence (Q92847 whole entry, species assumed): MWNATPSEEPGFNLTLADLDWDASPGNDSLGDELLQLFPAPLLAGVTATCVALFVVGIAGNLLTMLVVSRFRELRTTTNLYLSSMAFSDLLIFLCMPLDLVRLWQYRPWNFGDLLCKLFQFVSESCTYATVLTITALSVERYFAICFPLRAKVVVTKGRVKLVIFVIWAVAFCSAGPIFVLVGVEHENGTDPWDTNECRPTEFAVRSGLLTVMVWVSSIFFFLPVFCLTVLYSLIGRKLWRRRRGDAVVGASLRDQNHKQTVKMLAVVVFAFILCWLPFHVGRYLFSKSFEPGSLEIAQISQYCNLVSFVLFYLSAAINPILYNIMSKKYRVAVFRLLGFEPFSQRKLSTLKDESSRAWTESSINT
Take `CCN(CC)CCCS(=O)(=O)N[C@H](CCc1ccccc1)c1nc(-c2ccc(F)cc2F)n[nH]1` [Compound 96, 3-Diethylamino-propane-1-sulfonic acid {(R)-1-[5-(2,4-difluoro-phenyl)-2H-[1,2,4]triazol-3-yl]-3-phenyl-propyl}-amide]: the Ki was below 100 nM.
As for `CCN(CC)CCCS(=O)(=O)N[C@H](CCc1ccccc1)c1nc(CCc2ccccc2)no1` [Compound 97, 3-Diethylamino-propane-1-sulfonic acid [(R)-1-(3-phenethyl-[1,2,4]oxadiazol-5-yl)-3-phenyl-propyl]-amide], the inhibition constant Ki was below 100 nM.
For `CCN(CC)CCCS(=O)(=O)N[C@H](CCC(N)=O)c1nc(Cc2ccc(Br)cc2)no1` [Compound 98, (R)-4-[3-(4-Bromo-benzyl)-[1,2,4]oxadiazol-5-yl]-4-(3-diethylamino-propane-1-sulfonylamino)-butyramide] the value was 100 to 500 nM.
With `CCN(CC)CCCS(=O)(=O)N[C@H](CCc1ccccc1)c1nc(COc2ccccc2)no1` [Compound 99, 3-Diethylamino-propane-1-sulfonic acid [(R)-1-(3-phenoxymethyl-[1,2,4]oxadiazol-5-yl)-3-phenyl-propyl]-amide] the figure was below 100 nM; with `CCN(CC)CCCS(=O)(=O)N[C@H](CCc1ccccc1)c1nc(Cc2ccccc2OC)no1` [Compound 100, 3-Diethylamino-propane-1-sulfonic acid {(R)-1-[3-(2-methoxy-benzyl)-[1,2,4]oxadiazol-5-yl]-3-phenyl-propyl}-amide], below 100 nM.
The molecule `CCN(CC)CCCS(=O)(=O)N[C@H](CCc1ccccc1)c1nc(CCc2ccccc2Cl)no1` [Compound 101, 3-Diethylamino-propane-1-sulfonic acid ((R)-1-{3-[2-(2-chloro-phenyl)-ethyl]-[1,2,4]oxadiazol-5-yl}-3-phenyl-propyl)-amide] had a Ki of 100 to 500 nM.
For `CCN(CC)CCCS(=O)(=O)N[C@H](CC(N)=O)c1nc(Cc2ccc(Br)cc2)no1` [Compound 102, (R)-3-[3-(4-Bromo-benzyl)-[1,2,4]oxadiazol-5-yl]-3-(3-diethylamino-propane-1-sulfonylamino)-propionamide] the value was 100 to 500 nM.
For `CCN(CC)CCCS(=O)(=O)N[C@H](CCc1ccccc1)c1nc(-c2ccccc2C)n[nH]1` [Compound 104, 3-Diethylamino-propane-1-sulfonic acid [(R)-3-phenyl-1-(5-o-tolyl-2H-[1,2,4]triazol-3-yl)-propyl]-amide] the value was below 100 nM; for `CCN(CC)CCCS(=O)(=O)N[C@H](CCc1ccccc1)c1nc(-c2ccc(F)cc2)n[nH]1` [Compound 105, 3-Diethylamino-propane-1-sulfonic acid {(R)-1-[5-(4-fluoro-phenyl)-2H-[1,2,4]triazol-3-yl]-3-phenyl-propyl}-amide], below 100 nM.
Take `CCN(CC)CCCS(=O)(=O)N[C@H](CCc1ccccc1)c1nc(-c2ccc(OC(F)(F)F)cc2)n[nH]1` [Compound 106, 3-Diethylamino-propane-1-sulfonic acid {(R)-3-phenyl-1-[5-(4-trifluoromethoxy-phenyl)-2H-[1,2,4]triazol-3-yl]-propyl}-amide]: the Ki was below 100 nM.
Turning to `CCN(CC)CCCS(=O)(=O)N[C@H](CCc1ccccc1)c1nc(Cc2ccc(OC)cc2)n[nH]1` [Compound 107, 3-Diethylamino-propane-1-sulfonic acid {(R)-1-[5-(4-methoxy-benzyl)-2H-[1,2,4]triazol-3-yl]-3-phenyl-propyl}-amide], the Ki was 100 to 500 nM.
With `CCN(CC)CCCS(=O)(=O)N[C@H](CCc1ccccc1)c1nc(-c2ccc(C)cc2)n[nH]1` [Compound 108, 3-Diethylamino-propane-1-sulfonic acid [(R)-3-phenyl-1-(5-p-tolyl-2H-[1,2,4]triazol-3-yl)-propyl]-amide] the figure was 100 to 500 nM; with `CCN(CC)CCCS(=O)(=O)N[C@H](CCc1ccccc1)c1nc(Cc2cccc(OC)c2)no1` [Compound 109, 3-Diethylamino-propane-1-sulfonic acid {(R)-1-[3-(3-methoxy-benzyl)-[1,2,4]oxadiazol-5-yl]-3-phenyl-propyl}-amide], below 100 nM.
Take `CCN(CC)CCCS(=O)(=O)N[C@H](CCc1ccccc1)c1nc(-c2ccc(N(C)C)cc2)n[nH]1` [Compound 110, 3-Diethylamino-propane-1-sulfonic acid {(R)-1-[5-(4-dimethylamino-phenyl)-2H-[1,2,4]triazol-3-yl]-3-phenyl-propyl}-amide]: the Ki is at least 1000 nM.
For `CCN(CC)CCCS(=O)(=O)N[C@H](CCc1ccccc1)c1nc(Cc2ccc(OC)cc2)no1` [Compound 111, 3-Diethylamino-propane-1-sulfonic acid {(R)-1-[3-(4-methoxy-benzyl)-[1,2,4]oxadiazol-5-yl]-3-phenyl-propyl}-amide] the value was below 100 nM; for `CCN(CC)CCCS(=O)(=O)N[C@H](CCc1ccccc1)c1nc(Cc2ccccn2)no1` [Compound 112, 3-Diethylamino-propane-1-sulfonic acid [(R)-3-phenyl-1-(3-pyridin-2-ylmethyl-[1,2,4]oxadiazol-5-yl)-propyl]-amide], 100 to 500 nM.
With `CCN(CC)CCCS(=O)(=O)N[C@H](CCc1ccccc1)c1nc(CCc2ccc(Br)cc2)no1` [Compound 113, 3-Diethylamino-propane-1-sulfonic acid ((R)-1-{3-[2-(4-bromo-phenyl)-ethyl]-[1,2,4]oxadiazol-5-yl}-3-phenyl-propyl)-amide] the figure was below 100 nM; with `CCN(CC)CCCS(=O)(=O)N[C@H](CCc1ccccc1)c1nc(Cc2ccccc2Cl)no1` [Compound 114, 3-Diethylamino-propane-1-sulfonic acid {(R)-1-[3-(2-chloro-benzyl)-[1,2,4]oxadiazol-5-yl]-3-phenyl-propy}-amide], below 100 nM; with `CCN(CC)CCCS(=O)(=O)N[C@H](CCc1ccccc1)c1nc(-c2ccc(OC)cc2F)n[nH]1` [Compound 115, 3-Diethylamino-propane-1-sulfonic acid {(R)-1-[5-(2-fluoro-4-methoxy-phenyl)-2H-[1,2,4]triazol-3-yl]-3-phenyl-propyl}-amide], below 100 nM.
In the case of `CCN(CC)CCCS(=O)(=O)N[C@H](CCc1ccccc1)c1nc(Cc2ccccc2)no1` [Compound 116, 3-Diethylamino-propane-1-sulfonic acid [(R)-1-(3-benzyl-[1,2,4]oxadiazol-5-yl)-3-phenyl-propyl]-amide], the Ki was in the range of 100 to 500 nM.
For `CCN(CC)CCCS(=O)(=O)N[C@H](CCc1ccccc1)c1nc(Cc2ccc(C(F)(F)F)cc2)no1` [Compound 117, 3-Diethylamino-propane-1-sulfonic acid {(R)-3-phenyl-1-[3-(4-trifluoromethyl-benzyl)-[1,2,4]oxadiazol-5-yl]-propyl}-amide] the value was below 100 nM; for `CCN(CC)CCCS(=O)(=O)N[C@H](CCc1ccccc1)c1nc(-c2cccc3[nH]ccc23)n[nH]1` [Compound 118, 3-Diethylamino-propane-1-sulfonic acid {(R)-1-[5-(1H-indol-4-yl)-2H-[1,2,4]triazol-3-yl]-3-phenyl-propyl}-amide], below 100 nM; for `CCN(CC)CCCS(=O)(=O)N[C@H](Cc1ccccc1)c1nc(-c2ccc(OC)cc2)n[nH]1` [Compound 119, 3-Diethylamino-propane-1-sulfonic acid {(R)-1-[5-(4-methoxy-phenyl)-2H-[1,2,4]triazol-3-yl]-2-phenyl-ethyl}-amide], 100 to 500 nM.
For `CCN(CC)CCCS(=O)(=O)N[C@H](CCc1ccccc1)c1nc(-c2ccc(O)cc2)n[nH]1` [Compound 120, 3-Diethylamino-propane-1-sulfonic acid {(R)-1-[5-(4-hydroxy-phenyl)-2H-[1,2,4]triazol-3-yl]-3-phenyl-propyl}-amide] the value was below 100 nM; for `CCN(CC)CCCS(=O)(=O)N[C@H](CCc1ccccc1)c1nc(-c2cccc(O)c2)n[nH]1` [Compound 121, 3-Diethylamino-propane-1-sulfonic acid {(R)-1-[5-(3-hydroxy-phenyl)-2H-[1,2,4]triazol-3-yl]-3-phenyl-propyl}-amide], below 100 nM.
For the molecule `CCN(CC)CCCS(=O)(=O)N[C@H](CCc1ccccc1)c1nc(Cc2ccsc2)n[nH]1` [Compound 122, 3-Diethylamino-propane-1-sulfonic acid [(R)-3-phenyl-1-(5-thiophen-3-ylmethyl-2H-[1,2,4]triazol-3-yl)-propyl]-amide], the Ki was below 100 nM.
For `CCN(CC)CCCS(=O)(=O)N[C@H](CCc1ccccc1)c1nc(-c2cccc(SC)c2)n[nH]1` [Compound 123, 3-Diethylamino-propane-1-sulfonic acid {(R)-1-[5-(3-methylsulfanyl-phenyl)-2H-[1,2,4]triazol-3-yl]-3-phenyl-propyl}-amide] the value was below 100 nM.
On to `CCN(CC)CCCS(=O)(=O)N[C@H](CCc1ccccc1)c1nc(Cn2nnc3ccccc32)n[nH]1` [Compound 124, 3-Diethylamino-propane-1-sulfonic acid [(R)-1-(5-benzotriazol-1-ylmethyl-2H-[1,2,4]triazol-3-yl)-3-phenyl-propyl]-amide], for which the Ki was below 100 nM.
With `CCN(CC)CCCS(=O)(=O)N[C@H](CCc1ccccc1)c1nc(-c2ccc(OC)c(C#N)c2)n[nH]1` [Compound 125, 3-Diethylamino-propane-1-sulfonic acid {(R)-1-[5-(3-cyano-4-methoxy-phenyl)-2H-[1,2,4]triazol-3-yl]-3-phenyl-propyl}-amide] the figure was below 100 nM; with `CCN(CC)CCCS(=O)(=O)N[C@H](CCc1ccccc1)c1nc(-c2ccc(C#N)c(Cl)c2)n[nH]1` [Compound 126, 3-Diethylamino-propane-1-sulfonic acid {(R)-1-[5-(3-chloro-4-cyano-phenyl)-2H-[1,2,4]triazol-3-yl]-3-phenyl-propyl}-amide], below 100 nM; with `CCN(CC)CCCS(=O)(=O)N[C@H](CCc1ccccc1)c1nc(Cc2c[nH]c3ccccc23)n[nH]1` [Compound 127, 3-Diethylamino-propane-1-sulfonic acid {(R)-1-[5-(1H-indol-3-ylmethyl)-2H-[1,2,4]triazol-3-yl]-3phenyl-propyl}-amide], below 100 nM.

The term Ki denotes the equilibrium dissociation constant of an inhibitor or competing ligand from its target.

(Values after US7829589B2, “Sulfonamide compounds and uses thereof” (Elixir Pharmaceuticals, Inc., priority 2005, dated 2010).)
